Reference: a melting point compilation (Tetko et al.; mined from patent text by program, amines drawn as free bases though some values may be those of a salt)

For `N#Cc1c(N2CCc3ccccc3CC2)nc(NCC(F)(F)F)n(CC(F)(F)F)c1=O`, the melting point was > 200 °C.
`Cn1cccc1C1=C(c2cn(C)c3ccccc23)C(=O)NC1=O` gave a melting point of 248 to 250 °C.
`O=C(NCc1ccccc1)c1ccnc(NC(=O)c2ccc(OC(F)(F)F)cc2)c1` gave a melting point of 151 to 153 °C.
Compound `CCOC(=O)c1c(N)[nH]c2cccc(Cl)c12` has a melting point of 140 to 142 °C.
For `Nc1ccc(C(=O)CCCCOCc2ccccc2)cc1`, the melting point was 72 °C.
`O=C(NC1N=C(c2ccccc2)c2ccccc2NC1=O)c1ccc(-c2ccccc2)cc1` (racemic) showed a melting point of 274 to 276 °C.
Work on `CCCCN(CCCC)c1ccc(C=CC=CC=CC2=C(C#N)C(=C(C#N)C#N)OC2(C)C(F)(F)F)c(OC)c1` (stereo not given) yielded a melting point of 168 to 172 °C.
For `Cc1ccn(Cc2ccc(Cl)c(Cl)c2)c(=O)c1C(=O)O`, the melting point was 219 to 221 °C.
Work on `COc1ccc(-c2nnn(-c3ccc(C(F)(F)F)cc3F)c2Cl)c(Cl)c1` yielded a melting point of 95.8 to 97.5 °C.
In the case of `O=Cc1ccc(OCc2ccccc2)c2[nH]c(C(=O)O)cc12`, the melting point is reported as 207 °C.
With `COC(=O)C(O)c1ccccc1Nc1c(Cl)cccc1Cl` (stereo not given) the melting point was 123 to 124 °C.
`COC(=O)Cc1ccc(Sc2ccccc2C(=O)N(C)C)c([N+](=O)[O-])c1` showed a melting point of 124 to 125 °C.
`COc1ccc2nc(NC(=O)c3nc4ccccc4[nH]3)sc2c1` showed a melting point of 246 °C.
Work on `CCCCCCCCCCCCCC(=O)c1c(O)c(C)c(C)c(O)c1CCC` yielded a melting point of 70 °C.
Compound `O=C(OCc1ccccc1)N1CCC(O)(C(=O)O)C1` (stereo not given) has a melting point of 142 to 144 °C.
Compound `O=S(=O)(C(=CNc1ccccc1)S(=O)(=O)c1ccccc1)c1ccccc1` has a melting point of 199 to 202 °C.
`O=C(O)c1cc2c(c(-c3ccccc3)c1)C(=O)OC2=S` gave a melting point of 237 to 247 °C.
With `O=C(NCC12CC3CC(CC(C3)C1)C2)c1c(Cl)ccc2nc(N3C[C@@H]4C(C(=O)O)[C@@H]4C3)ccc12` (stereo not given in full) the melting point was 175 to 180 °C.
For `CCOC(=O)NCCOC(=O)COc1cc(Oc2ccc(C(F)(F)F)cc2Cl)ccc1[N+](=O)[O-]`, the melting point was 94 to 95 °C.
With `CC(C)=CCOC1=CC(=O)c2ccccc2C1=O` the melting point was 60 °C.
Work on `N#Cc1cc(Br)ccc1CBr` yielded a melting point of 81 °C.
`Oc1cccc(-c2csc(-c3cccnc3)n2)c1` showed a melting point of 180 to 181 °C.
Compound `CC1Cc2ccc([Si](C)(C)C)c(S(N)(=O)=O)c2S1(=O)=O` (stereo not given) has a melting point of 171 to 172 °C.
`O=C(NC1CCCCCCC1)NS(=O)(=O)c1ccc(CCNC(=O)N2CCCCC2=O)cc1` gave a melting point of 170 to 172 °C.
In the case of `c1ccc2c(c1)ccn2Nc1ncnc2c1ncn2-n1ccc2ccccc21`, the melting point is reported as 196 to 198 °C.
`C=CCN1CCN(C(=O)Cn2sc3ccccc3c2=O)CC1` gave a melting point of 119 to 120 °C.
With `CC(=O)c1ccc(C#CCOC2CCC3C4CCC5CC(C)(O)CCC5(C)C4CCC23C)cc1` (stereo not given) the melting point was 52 to 55 °C.
For `O=C(O)c1ccc(F)nc1F`, the melting point was 170 to 171 °C.
In the case of `COc1cc(N)c(C(=O)c2ccncc2)cc1OC`, the melting point is reported as 155 to 158 °C.
For `Cc1nc(Nc2nc3ccccc3[nH]2)nc(O)c1CC(=O)O`, the melting point was > 300 °C.
For `OC(=S)CCc1ccccc1`, the melting point was 60 °C.
For `CCc1nc(OCc2ccc(Oc3ccc(C(F)(F)F)cc3)cc2)c(C)c(=O)n1CC`, the melting point was 93.8 to 95.7 °C.
`Cc1ccn2nc(S(=O)(=O)Nc3c(Cl)cccc3Cl)nc2c1` showed a melting point of 232 to 234 °C.
Compound `C=C1CCc2c(N3CCC(O)C3)c(F)cc3c(=O)c(C(=O)O)cn1c23` (stereo not given) has a melting point of 190 to 196 °C.
`CC(C)(C)C(=O)Oc1ccccc1-c1nnn[nH]1` showed a melting point of 82 to 85 °C.
`COc1ncccc1Nc1c(NC(NC(=O)c2ccc(Cl)cc2)C(C)(C)C)c(=O)c1=O` (stereo not given) showed a melting point of 239 to 241 °C.
For `CC(C)(C)c1nc(C=CC(COc2ccccc2)=NO)nc(C(C)(C)C)c1O`, the melting point was 130 to 135 °C.
In the case of `Cc1oc2cc(N)ccc2c(=O)c1C`, the melting point is reported as 224 to 226 °C.
`COc1cc2c(c3c1OC(C)(C)C3)C(c1ccnc(-n3c(=O)cc(C)c4ccccc43)c1)=NC(C)(C)C2` gave a melting point of 218 to 219 °C.
In the case of `CC(Oc1ccc(Br)cc1)c1ccnc2ncnn12` (stereo not given), the melting point is reported as 121 to 124 °C.
